Values of other authors, collected in patent US20050227966A1 (Wyeth, priority 2004, published 2005).

Experiments:
[1] = system: ovariectomized rat model of osteopenia
uterine response = details: preclinical models of uterine stimulation
[2] = system: MCF-7 cell line (human breast cancer cell line); details: MCF-7 cells

## Cc1c(-c2ccc(O)cc2)n(Cc2ccc(OCCN3CCCCCC3)cc2)c2ccc(O)cc12 [bazedoxifene acetate, 1-[4-(2-azepan-1-yl-ethoxy)-benzyl]-2-(4-hydroxy-phenyl)-3-methyl-1H-indol-5-ol acetic acid]
[1]
  effect in preventing bone loss and reducing cholesterol: estrogen agonist-like effect
Uterine response
  stimulation of uterine response: little or no stimulation
[2]
  estrogen agonist/antagonist behaviour: estrogen antagonist
